Measurements as given in patent publication US10716771B2, “Pharmaceutical composition for preventing or treating immune diseases or inflammatory diseases, containing biguanide derivative compound as active ingredient” (THE CATHOLIC UNIVERSITY OF KOREA INDUSTRY-ACADEMIC …, priority 2013, dated 2020).

Assays:
IgG [1] = assay: IgG (autoantibody) ELISA, Example 8-2; type: cell-based, mouse; conditions: incubated supernatant, compared with metformin
Description: In order to evaluate an arthritis therapeutic effect of the biguanide derivative compound of the present invention, in a rheumatoid arthritis animal model, cytotoxicity, generation of autoantibody, expression of inflammatory cytokines and regulatory T cells (Treg), and osteoclast differentiation were measured. Like Examples, metformin was used as a control group.
(§1) In order to examine an effect of suppressing the generation of autoantibody of the biguanide derivative compound of the present invention, the incubated supernatant was collected and the IgG expression degree was examined by using an ELISA. A monoclonal anti-IgG was reacted at 4° C. overnight in a 96-well plate and then a non-specific binding was blocked by a blocking solution. A mouse control serum was continuously diluted by 1/2 to be used as a standard, added with the cell-incubated supernatant, and reacted at room temperature for 2 hrs. Thereafter, HRP-anti-IgG was reacted at room temperature for 2 hrs, washed four times after reaction, added with the diluted HRP-conjugate, and reacted at room temperature for 2 hrs.

IgG [2] = assay: IgG generation in lupus animal model; type: cell-based; conditions: compared with metformin
Description: as §1
(§2) In order to evaluate a lupus therapeutic effect of the biguanide derivative compound of the present invention, in a lupus animal model, cytotoxicity, autoantibody generation, generation of inflammatory cytokines, and Th17 regulation were measured by the same method as Example 8.

IL-17 = IL-17 sandwich ELISA, Example 8-3; type: cell-based, mouse; conditions: incubated supernatant
Description: (§3) In order to evaluate an arthritis therapeutic effect of the biguanide derivative compound of the present invention, in a rheumatoid arthritis animal model, cytotoxicity, generation of autoantibody, expression of inflammatory cytokines and regulatory T cells (Treg), and osteoclast differentiation were measured. Like Examples, metformin was used as a control group. In order to evaluate an effect of suppressing the expression of the inflammatory cytokine of the biguanide derivative compound of the present invention, the incubated supernatant was collected and the expression degrees of IL-17 and TNF-α of a mouse were examined by using a sandwich ELISA. […] of a monoclonal anti-IL-17 or anti-TNF-α was reacted in a 96-well plate at 4° C. overnight and then a non-specific binding was blocked by a blocking solution (1% BSA/PBST) after the reaction. An IL-17 or TNF-α recombinant was continuously diluted by 1/2 to be used as a standard, added with the cell-incubated supernatant, and reacted at room temperature for 2 hrs. Thereafter, biotinylated anti-IL-17 or anti-TNF-α was added and reacted at room temperature for 2 hrs, washed four times after the reaction, diluted with a diluted ExtraAvidin-alkaline phosphatase conjugate, and reacted at room temperature for 2 hrs. After the reaction, a PNPP/DEA was added and colored, and absorbance was measured at a wavelength of 405 nm.

TNF-α [3] = assay: TNF-α sandwich ELISA, Example 8-3; type: cell-based, mouse; conditions: incubated supernatant
Description: as §3

Th17 = Th17 activity in lupus animal model; type: cell-based
Description: Further, the incubated cells were analyzed by flow cytometry using anti-CD4-percp and anti-IL-17-Pe fluorescent antibodies, and as a result, it was verified that SD-196, 216 and 217 suppressed the activity of Th17 and simultaneously activated the expression of the regulatory T cells (Treg) (see FIG. 13).
as §2

normal cells = assay: Cytotoxicity (MTT) in normal (human) cells; type: cell-based
Description: In order to examine cytotoxicity of the biguanide derivative compound of the present invention, an MTT assay was performed. Cells were isolated from the spleen in a normal mouse group and the isolated cells were incubated for 3 days in the concentration of 0.5 μg/ml of anti-CD3 or 100 ng/ml of LPS 100, and metformin, SD-196, SD-216 or SD-217 was treated for each concentration and incubated for 3 days. […] In order to evaluate a development possibility of the biguanide derivative compound of the present invention as an agent for preventing or treating immune diseases, effects of modulating cytotoxicity and generation of inflammatory cytokines by targeting normal cells were measured by the same method as Example 8.

TNF-α [4] = assay: TNF-α generation in LPS-treated mouse spleen cells, ELISA; type: cell-based; conditions: 2, 20, 200 μM with LPS 100 ng/ml, 3 days; compared with only LPS
Description: Spleen cells were obtained from a normal mouse of C57BL/6 (Orient Company, Korea). That is, the tissue of the spleen extracted from the mouse was finely grinded by using a teasing slide and then erythrocytes in the spleen were removed by an erythrocyte hemolysis solution. Thereafter, a PBS buffer solution was added, centrifuged, and washed to obtain spleen cells.
Since it is known that Metformin used as the diabetes therapeutic agent currently on the market has a slight effect of blocking TNF-α as the inflammatory cytokine, in order to verify whether the biguanide derivative compound of the present invention has activity of reducing the generation of TNF-α, the expression degree of TNF-α was measured by an ELISA assay. […]
In order to measure an amount of the generated TNF-α cytokine, a supernatant of the incubated cells was collected and the TNF-α generation degree was examined by using an ELISA. […] Thereafter, a PNPP/DEA solution was added and colored, and then the absorbance was measured at a wavelength of 405 nm.

| Compound | expression of IgG (IgG [1]) | expression of IgG (IgG [2]) | IL-17 inflammatory cytokine expression (IL-17) | TNF-α inflammatory cytokine expression (TNF-α [3]) | activity of Th17 (Th17) | cytotoxicity (normal cells) | generated amount of TNF-α (TNF-α [4]) |
| --- | --- | --- | --- | --- | --- | --- | --- |
| CC(C)NC(=N)NC(=N)N [SD-000196, 1-isopropylbiguanide] | significantly suppressed | significantly suppressed | significantly suppressed | significantly suppressed | suppressed | – | – |
| N=C(N)NC(=N)Nc1ccc(F)cc1F [SD-000217, 1-(2,4-difluorophenyl)biguanide] | significantly suppressed | significantly suppressed | significantly suppressed | significantly suppressed | suppressed | no cytotoxicity | very significantly reduced |
| NC(N)=N/C(N)=N/c1cccc(F)c1 [SD-000216, 1-(3-fluorophenyl)biguanide] | significantly suppressed | significantly suppressed | significantly suppressed | significantly suppressed | suppressed | no cytotoxicity | very significantly reduced |
